In US8247409B2, “Thieno-[2,3-d]pyrimidine and thieno-pyridazine compounds and methods of use” (Amgen Inc., priority 2006, dated 2012):

Tested on: LPS induced TNF release from monocytes
Experiment: Lipopolysaccharide-activated Monocyte TNF Production Assay
Assay type: cell-based
Details: Homo sapiens, monocytes activated with LPS, TNF in supernatant by ELISA
Procedure: Lipopolysaccharide-activated Monocyte TNF Production Assay
Test compounds were evaluated in vitro for the ability to inhibit the production of TNF by monocytes activated with bacterial lipopolysaccharide (LPS). Fresh residual source leukocytes (a byproduct of plateletpheresis) were obtained from a local blood bank, and peripheral blood mononuclear cells (PBMCs) were isolated by density gradient centrifugation on Ficol-Paque Plus (Pharmacia). PBMCs were suspended at 2×10^6/mL in DMEM supplemented to contain 2% FCS, 10 mM, 0.3 mg/mL […], 100 U/mL penicillin G and […] streptomycin sulfate (complete media). Cells were plated into Falcon flat bottom, 96 well culture plates (200 μL/well) and cultured overnight at 37° C. and 6% CO2. Non-adherent cells were removed by washing with 200 μL/well of fresh medium. Wells containing adherent cells (˜70% monocytes) were replenished with 100 μL of fresh medium.
Preparation of Test Compound Stock Solutions
Test compounds were dissolved in […]. Compound stock solutions were prepared to an initial concentration of […]. Stocks were diluted initially to 20-200 μM in complete media. Nine two-fold serial dilutions of each compound were then prepared in complete medium.
Treatment of Cells with Test Compounds and Activation of TNF Production with Lipopolysaccharide
One hundred microliters of each test compound dilution were added to microtiter wells containing adherent monocytes and 100 μL complete medium. Monocytes were cultured with test compounds for 60 min at which time 25 μL of complete medium containing 30 ng/mL lipopolysaccharide from E. coli K532 were added to each well. Cells were cultured an additional 4 hrs. Culture supernatants were then removed and TNF presence in the supernatants was quantified using an ELISA.
Flat bottom, 96 well Corning High Binding ELISA plates were coated overnight (4° C.) with 150 μL/well of 3 μg/mL murine anti-human TNF-α MAb (R&D Systems #MAB210). Wells were then blocked for 1 h at room temperature with 200 μL/well of CaCl2-free ELISA buffer supplemented to contain 20 mg/mL BSA (standard ELISA buffer: […], 150 mM NaCl, 2 mM CaCl2, 0.15 mM thimerosal, pH 7.4). Plates were washed and replenished with 100 μL of test supernatants (diluted 1:3) or standards. Standards consisted of eleven 1.5-fold serial dilutions from a stock of 1 ng/mL recombinant human TNF (R&D Systems). Plates were incubated at room temperature for 1 hr on orbital shaker (300 rpm); washed and replenished with 100 μL/well of 0.5 μg/mL goat anti-human TNF-α (R&D systems #AB-210-NA) biotinylated at a 4:1 ratio. Plates were incubated for 40 min, washed and replenished with 100 μL/well of alkaline phosphatase-conjugated streptavidin (Jackson ImmunoResearch #016-050-084) at 0.02 μg/mL. Plates were incubated 30 min, washed and replenished with 200 μL/well of 1 mg/mL of p-nitrophenyl phosphate. After 30 min, plates were read at 405 nm on a Vmax plate reader.
Standard curve data were fit to a second order polynomial and unknown TNF-α concentrations determined from their OD by solving this equation for concentration. TNF concentrations were then plotted vs. test compound concentration using a second order polynomial. This equation was then used to calculate the concentration of test compounds causing a 50% reduction in TNF production.

SMILES	IC50 [µM]
Cc1ccc(C(=O)NC2CC2)cc1-c1cc2cnc(CCN3CCOCC3)nc2s1 [Example 1, N-Cyclopropyl-4-methyl-3-(2-(2-morpholinoethyl)thieno[2,3-d]pyrimidin-6-yl)benzamide]	≤ 5
COc1c(F)cccc1-c1nncc2cc(-c3cc(C(=O)NC4CC4)ccc3C)sc12 [Example 3, N-cyclopropyl-3-(7-(3-fluoro-2-methoxyphenyl)thieno[2,3-d]pyridazin-2-yl)-4-methylbenzamide]	≤ 5
Cc1ccc(C(=O)NC2CC2)cc1-c1cc2cnnc(N3CCNC(=O)C3)c2s1 [Example 6, N-cyclopropyl-4-methyl-3-(7-(3-oxopiperazin-1-yl)thieno[2,3-d]pyridazin-2-yl)benzamide]	≤ 5
CCN(CC)CCCNc1ncc2cc(-c3cc(C(=O)NC4CC4)ccc3C)sc2n1 [Example 7, N-cyclopropyl-3-(2-((3-(diethylamino)propyl)amino)thieno[2,3-d]pyrimidin-6-yl)-4-methylbenzamide]	≤ 5
CCNC(=O)c1ccc(C)c(-c2cc3cnc(NCCN4CCOCC4)nc3s2)c1 [Example 9, N-ethyl-4-methyl-3-(2-((2-(4-morpholinyl)ethyl)amino)thieno[2,3-d]pyrimidin-6-yl)benzamide]	≤ 5
Cc1ccc(C(=O)O)cc1-c1cc2cnc(NCCN3CCOCC3)nc2s1 [Example 10, 4-methyl-3-(2-((2-(4-morpholinyl)ethyl)amino)thieno[2,3-d]pyrimidin-6-yl)benzoic acid]	≤ 5
Cc1ccc(C(=O)NC2CC2)cc1-c1cc2cnc(NCC3CCCN(C(=O)OC(C)(C)C)C3)nc2s1 (centres unmarked) [Example 14, 1,1-dimethylethyl 3-(((6-(5-((cyclopropylamino)carbonyl)-2-methylphenyl)thieno[2,3-d]pyrimidin-2-yl)amino)methyl)-1-piperidinecarboxylate]	≤ 5
Cc1ccc(C(=O)NC2CC2)cc1-c1cc2cnnc(Cl)c2s1 [Example 21, 3-(7-chlorothieno[2,3-d]pyridazin-2-yl)-N-cyclopropyl-4-methylbenzamide]	≤ 5
Cc1ccc(C(=O)NC2CC2)cc1-c1cc2cnnc(-c3ccc(F)cc3C)c2s1 [Example 22, N-cyclopropyl-3-(7-(4-fluoro-2-methylphenyl)thieno[2,3-d]pyridazin-2-yl)-4-methylbenzamide]	≤ 5
COc1ncccc1-c1nncc2cc(-c3cc(C(=O)NC4CC4)ccc3C)sc12 [Example 23, N-cyclopropyl-4-methyl-3-(7-(2-(methyloxy)-3-pyridinyl)thieno[2,3-d]pyridazin-2-yl)benzamide]	≤ 5
Cc1ccc(C(N)=O)cc1-c1cc2cnnc(-c3ccc(F)cc3C)c2s1 [Example 27, 3-(7-(4-fluoro-2-methylphenyl)thieno[2,3-d]pyridazin-2-yl)-4-methylbenzamide]	≤ 5
